Experiments:
[1] = target: SF3B1 (Homo sapiens, UniProt O75533+Q7RTV0); conditions: cited from earlier work
[2] = test system: MCA205 sarcoma cells expressing the intron-derived SL8 antigen; experiment: T-cell assay: B3Z specific T-cell activation by MCA205 cells expressing the intron-derived SL8 antigen; assay type: cell-based, mouse
Procedure: (§1) MCA205 mouse sarcoma cell line is cultured at 37° C. under 5% CO2 in RPMI 1640 medium (Life Technologies) in the presence of 1% glutamine, 1% sodium pyruvate, 1% non-essential amino-acids, 1% penicillin/streptomycin and 10% FBS (Life Technologies). B16F10 mouse melanoma cell line is cultured at 37° C. under 5% CO2 in DMEM medium (Life Technologies) containing 1% glutamine, 1% penicillin/streptomycin and 10% FCS under standard conditions. Stable MCA205-Globin-SL8-intron cell line are cultured under the same condition as MCA205 cell line with additional 500 μg/ml G418 (Life Technologies) for selection. Stable B16F10-Globin-SL8-intron cell line are cultured under the same condition as B16F10 cell line with additional 500 μg/ml G418 (Life Technologies) for selection. The SL8/Kb-specific (B3Z) T-cell reporter hybridoma are cultured at 37° C. under 5% CO2 in RPMI 1640 medium (Life Technologies) in the presence of 1% L-glutamine, 1% penicillin/streptomycin, 50 μM β-mercaptoéthanol and 10% FCS.
(§2) MCA205 and B16F10 mouse cell lines are transfected with the plasmid YFP-Globin-SL8-intron or with the PCDNA3 empty plasmid (negative control) with the transfection reagent jetPRIME (Ozyme) or GeneJuice (Millipore) respectively according to each manufacturer protocol. Twenty-four hours after transfection, cells are treated with different doses of Madrasin (Sigma SML 1409), Madra.HCl (3·HCl) or the different compounds herein cited. Cells are then washed three times with PBS 1× and 5.10^4 tumor cells are co-cultured with 1.10^5 B3Z hybridoma in a 96-well plate. In positive control wells, 4 μg/ml of synthetic peptide SL8 is added. Cells are then incubated overnight at 37° C. with 5% CO2. The plate is centrifuged at 1200 rpm for 5 min, cells are washed twice with PBS 1× and lysed for 5 min at 4° C. under shaking in 0.2% TritonX-100, 0.2% DTT, 0.5M K2HPO4, 0.5M KH2PO4. The lysate is centrifuged at 3000 rpm for 10 min and the supernatant is transferred to a 96-well optiplate (OptiPlaque-96, PerkinElmer). A revelation buffer containing 10 mM MgCl2, 11.2 mM β-mercaptoethanol, 0.0015% IGEPAL® CA-630 and 40 μM 4-Methylumbelliferyl β-D-Galactopyranoside (MUG) in PBS is added and the plate is incubated at room temperature for 3 hours. Finally, the β-galactosidase activity is measured using the FLUOstar OPTIMA (BMG LABTECH Gmbh, 30 Offenburg, Germany). Results are expressed as mean±SEM. *P<0.05, **P<0.01, ***P<0.001 (unpaired student t test).

[3] = test system: B16F10 melanoma cells expressing the intron-derived SL8 antigen; experiment: T-cell assay: B3Z specific T-cell activation by B16F10 cells expressing the intron-derived SL8 antigen; assay type: cell-based, mouse
Procedure: as §1, §2

[4] = test system: MCA205 sarcoma cells expressing the globin-SL8-intron construct; experiment: Tumor challenge: MCA205 globin-SL8-intron tumors in immunocompetent C57BL/6 mice; assay type: in vivo, mouse; conditions: for survivors: 120 days after tumor inoculation
Procedure: (§3) Wild type MCA205 sarcoma cells or MCA205 sarcoma cells expressing the globin-SL8-intron construct (MCA205 globin-SL8-intron) were subcutaneously inoculated into the flank of immunocompetent C57BL/6 mice subsequently injected intraperitoneally with 20 mg/kg or 40 mg/kg of Madra.HCl at day 4, 7, 10 and 14 post tumor inoculation. Tumor size was assessed every 3 to 4 days until the established ethical endpoints were reached. The panel C represents the growth curve of MCA205 sarcoma cells expressing the globin-SL8-intron construct (MCA205 globin-SL8-intron), the panel D represents the tumor size at day 25. The panel E represents the growth curve of Wild type MCA205 sarcoma cells (MCA205 WT), the panel F represents the tumor size at day 21. Data are given as mean±SEM. *p<0.05, **p<0.01 (ANOVA with Tukey's multiple comparison test comparing all groups).
(§4) Wild type MCA205 sarcoma cells or MCA205 sarcoma cells expressing the globin-SL8-intron construct (MCA205 globin-SL8-intron) were subcutaneously inoculated into the flank of immunocompetent C57BL/6 mice subsequently injected intraperitoneally with 20 mg/kg of EYP59 at day 4, 7, 10 and 14 post tumor inoculation. Tumor size was assessed every 3 to 4 days until the established ethical endpoints were reached (A). The upper panel B represents the growth curve of MCA205 sarcoma cells expressing the globin-SL8-intron construct (MCA205 globin-SL8-intron), the lower panel B represents the tumor size at day 23. The upper panel C represents the growth curve of Wild type MCA205 sarcoma cells (MCA205 WT), the lower panel C represents the tumor size at day 19. The panel D represents the growth curve of Wild type MCA205 sarcoma cells (MCA205 WT) in immunodeficient nu/nu mice with the same settings as previously described for the immunocompetent mice. Data are given as mean±SEM. *p<0.05, **p<0.01 (ANOVA with Tukey's multiple comparison test comparing all groups).
(§5) C57Bl/6J female mice are obtained from Harlan Laboratories Ltd, Switzerland. 7 week-old mice are injected subcutaneously into the right flank with 1.10^5 MCA205 sarcoma or B16F10 melanoma cells or 1.5.10^5 MCA205 globin-SL8-intron or B16F10 globin-SL8-intron cells. Sarcoma cells are injected in 100 μL sterile PBS while melanoma cells are injected in 50:50 PBS:Matrigel to prevent tumor cell dissemination. Madra.HCl is injected 4, 7, 10 and 14 days post tumor inoculation, in 100 μL H2O+[…] (2-Hydroxypropyl)-β-cyclodextrin (w/v). In the same manner EYP59 (compound 7) is injected 4, 7, 10 and 14 days post tumor inoculation, in 100 μL H2O. Area of the tumor is recorded every 3 to 4 days until the tumor reaches the ethical end points. […] Results are expressed as mean±SEM. *p<0.05, **P<0.01, ***P<0.001 (ANOVA with Tukey's multiple comparison test comparing all groups).

[5] = test system: Wild type MCA205 sarcoma cells; experiment: Tumor challenge: wild type MCA205 tumors in immunocompetent C57BL/6 mice; assay type: in vivo, mouse
Procedure: as §3, §4
Wild type MCA205 sarcoma cells were subcutaneously inoculated into the flank of immunocompetent C57BL/6 mice subsequently injected intratumorally with 2.5 mg/kg of EYP59 at day 4, 7, 10 and 14 post tumor inoculation or intravenously with 5 mg/kg of EYP59 at day 4, 7, 10 and 14 post tumor inoculation. The upper panel A represents the growth curve of wild type MCA205 sarcoma cells, the lower panel A represents the tumor size at day 21. The upper panel B represents the growth curve of wild type MCA205 sarcoma cell, the lower panel B represents the tumor size at day 25. Data are given as mean±SEM. *p<0.05, **p<0.01 (ANOVA with Tukey's multiple comparison test comparing all groups).
as §5

[6] = test system: Wild type MCA205 sarcoma cells; experiment: Tumor challenge: wild type MCA205 tumors in immunodeficient nu/nu mice; assay type: in vivo, mouse; conditions: 20 mg/kg
Procedure: as §4
In order to assess the requirement of the immune response for this effect, inventors tested the impact of 20 mg/kg EYP59 treatment in immunodeficient nu/nu mice with the same settings as previously described and observed that it has no effect on the tumor growth (FIG. 7D).

[7] = test system: MCA205 globin-SL8-intron cells; experiment: Re-challenge of tumor-free mice at day 100 with MCA205 globin-SL8-intron cells; assay type: in vivo, mouse; conditions: mice with complete tumor regression after treatment, re-challenged 100 days later, right flank
Source text: (§6) Growth curve of MCA205 globin-SL8-intron cells and B16F10 WT cells inoculated at day 100 into the right and the left flank, respectively, of C57BL/6 mice which experienced complete tumor regression after treatment with Madra.HCl.
(§7) Finally, mice which were inoculated with MCA205 tumor cells expressing the Globin-intron-SL8 construct, and that experienced complete tumor regression after treatment with Madra.HCl as described above were re-challenged 100 days later with MCA205 tumor cells expressing the Globin-intron-SL8 construct on the right flank and with B16F10 tumor cells on the left flank.

[8] = test system: B16F10 WT cells; experiment: Re-challenge of tumor-free mice at day 100 with B16F10 WT cells; assay type: in vivo, mouse; conditions: mice with complete tumor regression after treatment, re-challenged 100 days later, left flank
Source text: as §6, §7

[9] = Solubility in water; assay type: physicochemical

## CC[C@H](O)[C@@H](C)[C@H]1O[C@@H]1C[C@@](C)(O)/C=C/C=C(\C)[C@H]1OC(=O)C[C@H](O)CC[C@@](C)(O)[C@@H](OC(=O)N2CCN(C3CCCCCC3)CC2)/C=C/[C@@H]1C [E7107]
[1]
  outcome of testing in human: stopped because of problems of toxicity

## Cc1nc(Nc2nc(C)c3ccc(OP(=O)(O)O)cc3n2)[nH]c(=O)c1C [EYP59, Sodium 2-((4,5-dimethyl-6-oxo-1,6-dihydropyrimidin-2-yl)amino)-4-methylquinazolin-7-yl Phosphate]
[2]; MCA205, 60 μM, O/N
  PTP-SL8 presentation (B3Z T-cell activation): increase
[3]; B16F10, 60 μM, O/N
  PTP-SL8 presentation (B3Z T-cell activation): increase
[4]; 20 mg/kg intraperitoneally, day 23 after challenge
  reduction of tumor growth: 85%
[5]; 2.5 mg/kg intratumorally, day 21 after challenge
  reduction of tumor growth: 75%
[5]; 5 mg/kg intravenously, day 25 after challenge
  reduction of tumor growth: 80%
[5]; 20 mg/kg intraperitoneally, day 19 after challenge
  reduction of tumor growth: 70%
[6]
  effect on the tumor growth: no effect

## COc1ccc2c(C)nc(Nc3nc(C)c(C)c(=O)[nH]3)nc2c1.Cl [Madra.HCl, Madrasin hydrochloride]
[2]; MCA205, 5 μM or 10 μM, dose dependent
  PTPs-dependent antigen presentation (B3Z T-cell activation): increase
[3]; B16F10, 5 μM or 10 μM, dose dependent
  PTPs-dependent antigen presentation (B3Z T-cell activation): increase
[4]; 20 mg/kg intraperitoneally
  survivors: around 15%
[4]; 20 mg/kg intraperitoneally, day 27 after challenge
  reduction of tumor growth: 50%
[4]; 40 mg/kg intraperitoneally
  survivors: around 25%
[5]; 20 mg/kg intraperitoneally, day 21 after challenge
  reduction of tumor growth: 40%
[5]; 40 mg/kg intraperitoneally, day 21 after challenge
  reduction of tumor growth: 40%
[7]
  tumor growth after re-challenge: did not grow
[8]
  tumor growth after re-challenge: grew over time
[9]
  solubility in water: able to be dissolved in water
